Values quoted from earlier work in US8524198B2, “Xylitol dental maintenance system” (priority 2003, dated 2013).

Tests used:
[1] = 976 children aged 6-12 years, 2 years; for 2-year DMFS increment: partial substitution of sucrose by xylitol (X group) vs systemic fluoride (F group)
oral microorganisms = details: pure cultures of oral microorganisms in vitro
[2] = 3-year field study; partial substitution of sucrose by xylitol (X group)
dental plaque = dental plaque in vivo

Row | SMILES | ratio (RS) between caries incidence and the tooth surface population at risk [1] | 2-year DMFS increment [1] | metabolized into acids (oral microorganisms) | oral hygiene conditions, final vs base-line [2] | metabolized into acids (dental plaque)
1 | F [fluoride] | 5.5 | 4.8 |  |  | 
2 | OC[C@@H](O)[C@H](O)[C@@H](O)CO [xylitol] | 4.5 | 3.8 | not metabolized into acids | definite improvement | not metabolized into acids
